Measured values taken from ChEMBL document CHEMBL1133467, “Identification of novel inhibitors of urokinase via NMR-based screening” (J Med Chem, 2000).

How the values were obtained:
[1] = target: Urokinase-type plasminogen activator (Homo sapiens, UniProt P00749); test: Inhibitory activity against Urokinase-type plasminogen activator
[2] = Acid dissociation constant (pKa) of the compound; format: physicochemical

Compound	IC50 [1]	pKa [2]
Nc1nc2ccccc2[nH]1	200 µM	7.5
N=C(N)Nc1ccccc1 [PHENYLGUANIDINE]	20 µM	10.9
Nc1nc2cc(O)ccc2[nH]1	–	7.4
N=C(N)c1ccc(N)cc1	7 µM	11.4
